The text below walks through data of patent US10981884B2, “Process for the preparation of epoprostenol sodium of enhanced stability” (CHINOIN GYÓGYSZER ÉS VEGYÉSZETI TERMÉKEK GYÁRA ZRT., priority 2016, dated 2021).

Where “and” joins values, the source holds several entries; their conditions need not be identical. Identical values can stand only once.

A short description of data set [1]: Storage stability in refrigerator (5±3° C.), 6-oxo-PGF1alpha impurity content by HPLC. Format: physicochemical. Particulars: for 6-oxo-PGF1alpha content (HPLC): refrigerator (5 ± 3° C.), 4 mass % NaOH excess. The protocol:
Based on these unexpected experimental results we modified our new technology, we dissolved the funnel-wet, crystalline epoprostenol sodium salt in water, to the aqueous solution we added 2M NaOH solution in such an amount that the product, after lyophilisation contains 4 mass % excess of sodium hydroxide. The epoprostenol Na prepared by the new method may be stored in refrigerator (5±3° C.) for at least 6 months (Table 3.).

Data set [2] can be described thus: Accelerated stability study of lyophilisates at room temperature in closed glass vessels, active ingredient content followed by HPLC. Particulars: closed glass vessel. Format: physicochemical. The protocol: We investigated the effect of the sodium hydroxide amount used for the salt formation on the stability of the acid-sensitive epoprostenol Na. For this purpose the excess alkali which may be present in the epoprostenol Na salt was removed with strongly acidic cation exchange DOWEX resin, to the aqueous solution of the salt not containing excess alkali, different amounts of sodium hydroxide were added and the obtained solutions were lyophilized. From the 1% aqueous lyophilisate solutions we measured the pH and started accelerated stability studies at room temperature, in closed glass vessels. The change of the active ingredient content of the stability samples was followed by HPLC after 0, 24, 48 and 144 hours. From the measured active ingredient contents decomposition rates of epoprostenol Na have been calculated (Table 1.).

The nature of data set [3]: Storage stability in deep-freezer (−20±5° C.), 6-oxo-PGF1alpha impurity content by HPLC. Format: physicochemical. The note with it: for 6-oxo-PGF1alpha content (HPLC): deep-freezer (−20 ± 5° C.), 4 mass % NaOH excess. The protocol:
Based on these unexpected experimental results we modified our new technology, we dissolved the funnel-wet, crystalline epoprostenol sodium salt in water, to the aqueous solution we added 2M NaOH solution in such an amount that the product, after lyophilisation contains 4 mass % excess of sodium hydroxide. The stability of the epoprostenol Na prepared by this new method is excellent, it can be stored in deep-freezer (−20±5° C.) for at least 3 years.

Assay in data set [4]: as above
Format: physicochemical. Particulars: 4-5-6% NaOH excesses compared.

The nature of data set [5]: pH of 1% aqueous lyophilisate solution. Format: physicochemical. The protocol:
For this purpose the excess alkali which may be present in the epoprostenol Na salt was removed with strongly acidic cation exchange DOWEX resin, to the aqueous solution of the salt not containing excess alkali, different amounts of sodium hydroxide were added and the obtained solutions were lyophilized. From the 1% aqueous lyophilisate solutions we measured the pH and started accelerated stability studies at room temperature, in closed glass vessels.

The conditions of data set [6]: −30° C., white powder; cited from earlier work.
For data set [7] the following is noted: aqueous solution at physiological pH; cited from earlier work.

As to `CCCCC[C@H](O)/C=C/[C@@H]1[C@H]2C/C(=C/CCCC(=O)[O-])O[C@H]2C[C@H]1O.[Na+]` [Epoprostenol Na, (5Z,9α,11α,13E,15S)-6,9-Epoxy-11,15-dihydroxyprosta-5,13-dien-1-acid sodium salt], the “6-oxo-PGF1alpha content (HPLC)” value in data set [1] (month 0) worked out at 0.2 mass %; in data set [1] (month 1), 0.3 mass %; in data set [1] (month 3), 0.4 mass %; in data set [1] (month 6), 0.2 mass %; in data set [3] (month 0), 0.2 mass %; in data set [3] (month 1), 0.2 mass %. The “6-oxo-PGF1alpha content (HPLC)” value in data set [3] (month 3), in data set [3] (month 6), in data set [3] (month 9), in data set [3] (month 12), in data set [3] (month 18) and in data set [3] (month 24) was 0.2 mass % in each case. The “6-oxo-PGF1alpha content (HPLC)” value in data set [3] (month 36) is 0.2 mass %. Also, the “storage time (may be stored)” value in data set [1] (refrigerator (5±3° C.), lyophilisate with 4 mass % NaOH excess) is recorded as “at least 6 months”. Further, the PGI2Na decomposition was 34.9 %/month and 34.6 %/month in data set [2] (0.25 mass % NaOH added, sodium salt); 10.9 %/month and 10.6 %/month in data set [2] (2.5 mass % NaOH added, sodium salt); 8.8 %/month in data set [2] (3.0 mass % NaOH added); 4.5 %/month in data set [2] (4.0 mass % NaOH added); 1.7 %/month in data set [2] (5.0 mass % NaOH added); 1.3 %/month in data set [2] (5.5 mass % NaOH added). The PGI2Na decomposition came out at 1.7 %/month in data set [2] (6.0 mass % NaOH added), 3.1 %/month in data set [2] (7.5 mass % NaOH added) and 3.5 %/month in data set [2] (12.5 mass % NaOH added). Further, in data set [3] (deep-freezer (−20±5° C.), lyophilisate with 4 mass % NaOH excess), the “storage time (can be stored)” value is “at least 3 years”. Also, in data set [4], the “stability in the storage praxis” value was “equally good”. Further, the “pH (1% aqueous solution)” value is 9.98 and 10.14 in data set [5] (lyophilisate with 0.25 mass % NaOH added, sodium salt); 11.64 in data set [5] (lyophilisate with 2.5 mass % NaOH added); 11.70 in data set [5] (lyophilisate with 3.0 mass % NaOH added); 11.78 in data set [5] (lyophilisate with 4.0 mass % NaOH added); 11.86 in data set [5] (lyophilisate with 5.0 mass % NaOH added); 11.90 in data set [5] (lyophilisate with 5.5 mass % NaOH added). Also, the entries for the “pH (1% aqueous solution)” value in data set [5] (lyophilisate with 6.0 mass % NaOH added), in data set [5] (lyophilisate with 7.5 mass % NaOH added) and in data set [5] (lyophilisate with 12.5 mass % NaOH added) were 11.92, 12.00 and 12.15, respectively. The “time lyophilisate remained stable” value in data set [6] was “at least two”.
For the molecule `CCCCC[C@H](O)/C=C/[C@@H]1[C@H]2C/C(=C/CCCC(=O)O)O[C@H]2C[C@H]1O` [prostacyclin], the half-life (in general, the time in which the quantity being followed falls by half) in data set [7] is 3 to 4 min.
